System: Plasmodium berghei
Experiment: Luciferase/luciferin-expressing antifolate-resistant parasites were used to infect a culture of HepG2 cells that were pre-incubated with compounds. Infected hepatocytes emit light due to the luciferase reaction. Assay results are presented as the percent inhibition of light emission compared to control. […]
Format: functional
Conditions: sporozoite; for IC90: read-out: LUCIFERASE INFECTION ASSAY - IC90
[1] = read-out: LUCIFERASE INFECTION ASSAY - IC50

| SMILES | IC90 | IC50 [1] | other results |
| --- | --- | --- | --- |
| CC1CN(Cc2csc(Nc3ccccc3)n2)CC(C)O1 (configuration not stated) | 9.23 µM | – | IC50 (PBLUC_HILL_SLOPE 20.5, 3.85, PBLUC_R_SQUARED 0.234, 0.496, read-out: LUCIFERASE INFECTION ASSAY - IC50): 7.33 µM |
| Cc1nc(=O)c2c([nH]1)NC(=O)CC2c1cc(F)ccc1F (configuration not stated) | > 11.3 µM | > 11.3 µM | – |
| CC1CCC(C(C)C)C(OCC(O)CN2C(C)CCCC2C)C1 (configuration not stated) | > 9.12 µM | > 9.12 µM | – |
| O=C1CN(c2ccc(NC(=O)CCc3ccco3)cn2)CCN1 | > 10 µM | > 10 µM | – |
| Cc1[nH]c2ccccc2c1C1=NN=C(Nc2ccc(F)cc2)SC1 | > 10 µM | – | IC50 (HEPG2TOX_HILL_SLOPE 10.5, HEPG2TOX_R_SQUARED 0.592, PBLUC_HILL_SLOPE 2.25, PBLUC_R_SQUARED 0.706, read-out: LUCIFERASE INFECTION ASSAY - IC50): 5.54 µM |
| O=C(Nc1sc2c(c1-c1nc3ccccc3[nH]1)CCCC2)c1nc(-c2ccccc2)n(-c2ccccc2)n1 | > 10 µM | 9.63 µM | – |
| COc1ccc(CN2C(=O)c3ccccc3C(C=NNC(=O)Cc3cccn3C)C2=O)cc1 (configuration not stated) | 4.28 µM | – | IC50 (FFLUC_HILL_SLOPE 212, FFLUC_R_SQUARED 0.138, HEPG2TOX_HILL_SLOPE 1.34, HEPG2TOX_R_SQUARED 0.84, PBLUC_HILL_SLOPE 13.5, PBLUC_R_SQUARED 0.236, read-out: LUCIFERASE INFECTION ASSAY - IC50): 3.64 µM |
| O=[N+]([O-])c1cccc(-c2csc(CS(=O)(=O)c3cccs3)n2)c1 | > 9.01 µM | > 9.01 µM | – |
| CC(C)NC(=O)c1c(NC(=O)c2cc(F)ccc2F)nc2ccccn12 | > 9.21 µM | – | IC50 (PBLUC_HILL_SLOPE 2.78, PBLUC_R_SQUARED 0.497, read-out: LUCIFERASE INFECTION ASSAY - IC50): 6.02 µM |
| OCCN1N=C2c3cc(Cl)ccc3SCC2C1c1ccc(Cl)cc1 (configuration not stated) | > 8.7 µM | – | IC50 (PBLUC_HILL_SLOPE 3.12, PBLUC_R_SQUARED 0.594, read-out: LUCIFERASE INFECTION ASSAY - IC50): 7.08 µM |
| Cc1onc(-c2ccc(Cl)cc2Cl)c1-c1csc(Nc2c(Cl)cccc2Cl)n1 | > 7 µM | – | IC50 (PBLUC_HILL_SLOPE 16.2, PBLUC_R_SQUARED 0.0753, read-out: LUCIFERASE INFECTION ASSAY - IC50): 6.45 µM |
| CCOC(=O)/C=c1\s/c(=C\c2ccc(N3CCCCC3)c([N+](=O)[O-])c2)c(=O)n1CC(=O)N1CCC(C)CC1 | > 10 µM | – | IC50 (FFLUC_HILL_SLOPE 86.1, FFLUC_R_SQUARED 0.469, PBLUC_HILL_SLOPE 14.4, PBLUC_R_SQUARED 0.0813, read-out: LUCIFERASE INFECTION ASSAY - IC50): > 10 µM |
| O=C(CSc1nc2ccccc2c(=O)n1-c1ccccc1F)N1CCSC1c1ccccc1F (configuration not stated) | > 10 µM | > 10 µM | – |
| CCc1cc(=O)n2nc(Cc3ccccc3)c(-c3ccccc3)c2[nH]1 | > 10 µM | – | IC50 (HEPG2TOX_HILL_SLOPE 8.68, HEPG2TOX_R_SQUARED 0.27, PBLUC_HILL_SLOPE 11.4, PBLUC_R_SQUARED 0.149, read-out: LUCIFERASE INFECTION ASSAY - IC50): 8.75 µM |
| COc1ccc(CCNC(=O)COC(=O)c2sc(C)nc2C)cc1 | > 10 µM | > 10 µM | – |
| O=C(/C=C/c1ccncc1)Nc1ccc(Oc2ccccc2)cc1 | 6.66 µM | – | IC50 (HEPG2TOX_HILL_SLOPE 9.03, HEPG2TOX_R_SQUARED 0.239, PBLUC_HILL_SLOPE 3.67, PBLUC_R_SQUARED 0.501, read-out: LUCIFERASE INFECTION ASSAY - IC50): 3.66 µM |
| CC(C)(C)c1ccc(-c2ccc(OCCN3CCOCC3)nc2)cc1 | > 9.69 µM | – | IC50 (HEPG2TOX_HILL_SLOPE 2.33, HEPG2TOX_R_SQUARED 0.966, PBLUC_HILL_SLOPE 2.69, PBLUC_R_SQUARED 0.584, read-out: LUCIFERASE INFECTION ASSAY - IC50): 4.35 µM |
| Cc1ccc(NC(=O)c2cccc(NS(=O)(=O)c3ccc(C)c(F)c3)c2)nc1 | > 10 µM | > 10 µM | – |
| COC(=O)c1cnc(Sc2n[nH]c(=O)n2C2CCCCC2)c([N+](=O)[O-])c1 | > 8.7 µM | > 8.7 µM | – |
| CCN(c1ccc(NC(=O)c2ccc3c(c2)NC(=O)CS3)cc1)C(C)C | 3.68 µM | – | IC50 (HEPG2TOX_HILL_SLOPE 14.6, HEPG2TOX_R_SQUARED 0.71, PBLUC_HILL_SLOPE 18.6, PBLUC_R_SQUARED 0.967, read-out: LUCIFERASE INFECTION ASSAY - IC50): 3.27 µM |
| O=C(Nc1nc(-c2ccc(Cl)cc2Cl)cs1)C1CCN(c2ccc(Cl)nn2)CC1 | > 10 µM | > 10 µM | – |

| SMILES | IC90 | IC50 [1] | other results |
| --- | --- | --- | --- |
| CC(=O)Nc1ccc(-c2cnc3ccc(-c4ccc(S(C)(=O)=O)cc4)nn23)cc1 | 7.89 µM | – | IC50 (HEPG2TOX_HILL_SLOPE 6.82, HEPG2TOX_R_SQUARED 0.682, PBLUC_HILL_SLOPE 2.96, PBLUC_R_SQUARED 0.544, read-out: LUCIFERASE INFECTION ASSAY - IC50): 3.75 µM |
| COc1ccc(C2CCCCCN2C(=O)c2csc(-c3ccsc3)n2)cc1 (configuration not stated) | > 10 µM | – | IC50 (HEPG2TOX_HILL_SLOPE 2.14, HEPG2TOX_R_SQUARED 0.977, PBLUC_HILL_SLOPE 2.8, PBLUC_R_SQUARED 0.0937, read-out: LUCIFERASE INFECTION ASSAY - IC50): 5.38 µM |
| CCOC(=O)c1sc(SCc2ccc(Cl)cc2)c(S(=O)(=O)C(C)C)c1-n1cccc1 | > 6.82 µM | – | IC50 (FFLUC_HILL_SLOPE 13.5, FFLUC_R_SQUARED 0.375, read-out: LUCIFERASE INFECTION ASSAY - IC50): > 6.82 µM |
| COc1ccc(CN(Cc2n/c(=N\c3ccccc3C)nc(N)[nH]2)Cc2n/c(=N\c3ccccc3C)nc(N)[nH]2)cc1OC | 4.51 µM | – | IC50 (PBLUC_HILL_SLOPE 2.79, 12.2, PBLUC_R_SQUARED 0.127, 0.675, read-out: LUCIFERASE INFECTION ASSAY - IC50): 2.77 µM |
| CN(CCOC(=O)Nc1cc(Cl)cc(Cl)c1)c1ncc(C(F)(F)F)cc1Cl | > 7.46 µM | > 7.46 µM | – |
| CC(=O)c1cccc(NC(=O)Nc2ccc3nc(-c4cccc(C(F)(F)F)c4)nn3c2)c1 | 9.17 µM | – | IC50 (HEPG2TOX_HILL_SLOPE 8.68, HEPG2TOX_R_SQUARED 0.208, PBLUC_HILL_SLOPE 3.77, PBLUC_R_SQUARED 0.543, read-out: LUCIFERASE INFECTION ASSAY - IC50): 5.11 µM |
| CCSc1nccc(-c2ccc3c(c2)CCC(C)(C)O3)n1 | 3.37 µM | – | IC50 (PBLUC_HILL_SLOPE 1.33, PBLUC_R_SQUARED 0.696, read-out: LUCIFERASE INFECTION ASSAY - IC50): 0.648 µM |
| FC(F)(F)Oc1cccc(-c2cnc3sc(NCCN4CCOCC4)nn23)c1 | > 7.98 µM | – | IC50 (PBLUC_HILL_SLOPE 2.27, PBLUC_R_SQUARED 0.551, read-out: LUCIFERASE INFECTION ASSAY - IC50): 5.39 µM |
| Cc1cc(C(C)(C)C)cc(C)c1CCNC(=O)NCCNC(=O)c1ccco1 | > 10 µM | – | IC50 (PBLUC_HILL_SLOPE 2.38, PBLUC_R_SQUARED 0.642, read-out: LUCIFERASE INFECTION ASSAY - IC50): 5.63 µM |
| O=C1C=C(c2ccc(Cl)cc2)C(=O)N1Nc1ccc(Cl)cc1Cl | > 8.98 µM | – | IC50 (FFLUC_HILL_SLOPE 15.4, FFLUC_R_SQUARED 0.324, HEPG2TOX_HILL_SLOPE 12.8, HEPG2TOX_R_SQUARED 0.543, PBLUC_HILL_SLOPE 10.1, PBLUC_R_SQUARED 0.012, read-out: LUCIFERASE INFECTION ASSAY - IC50): 8.35 µM |
| O=C(Cn1ncc(Cl)c(Cl)c1=O)N1CCN(S(=O)(=O)c2ccc3ccccc3c2)CC1 | > 10 µM | – | IC50 (HEPG2TOX_HILL_SLOPE 11.9, 3.77, HEPG2TOX_R_SQUARED 0.663, 0.998, PBLUC_HILL_SLOPE 2.89, PBLUC_R_SQUARED 0.527, read-out: LUCIFERASE INFECTION ASSAY - IC50): 5.1 µM |
| CC1CCN(C(=O)CSC(F)(F)F)CC1 | > 10 µM | > 10 µM | – |
| CC1(C)CC(=O)C(C(c2ccc(OCc3ccccc3)cc2)C2C(=O)CC(C)(C)CC2=O)C(=O)C1 | > 10 µM | – | IC50 (FFLUC_HILL_SLOPE 2.7, FFLUC_R_SQUARED 0.381, read-out: LUCIFERASE INFECTION ASSAY - IC50): > 10 µM |
| OCc1ccc(-c2cn3c(-c4ccc5ncccc5c4)cnc3cn2)cc1 | 3.45 µM | – | IC50 (HEPG2TOX_HILL_SLOPE 2.22, HEPG2TOX_R_SQUARED 0.955, PBLUC_HILL_SLOPE 5.03, PBLUC_R_SQUARED 0.612, read-out: LUCIFERASE INFECTION ASSAY - IC50): 2.23 µM |
| COC(=O)c1cc(C#N)c(SCC(=O)c2ccc(Cl)cc2)nc1C(OC)OC | > 7.84 µM | > 7.84 µM | – |
| O=C1C(=C(O)c2ccc(OC(F)F)cc2)Sc2ccccc21 | > 10 µM | – | IC50 (PBLUC_HILL_SLOPE 4.86, PBLUC_R_SQUARED 0.465, read-out: LUCIFERASE INFECTION ASSAY - IC50): 9.12 µM |
| Cc1ccnc(NC(=O)Cc2cnn(-c3ccccc3)c2)c1 | 9.95 µM | – | IC50 (HEPG2TOX_HILL_SLOPE 17.5, HEPG2TOX_R_SQUARED 0.943, PBLUC_HILL_SLOPE 16.3, PBLUC_R_SQUARED 0.0531, read-out: LUCIFERASE INFECTION ASSAY - IC50): 8.7 µM |
| CN1C/C(=C\c2ccc(Cl)cc2)C(=O)/C(=C/c2ccc(Cl)cc2)C1 | > 9.21 µM | 7 µM | – |
| NS(=O)(=O)c1ccc(Nc2nc(-c3ccc(Cl)s3)cs2)cc1 | > 10 µM | – | IC50 (FFLUC_HILL_SLOPE 0.347, FFLUC_R_SQUARED 0.604, read-out: LUCIFERASE INFECTION ASSAY - IC50): > 10 µM |
| COc1cc(/C=C/C(=O)c2ccc(C3CCCCC3)cc2)cc(Br)c1OCC(=O)N(C)C | 3.59 µM | – | IC50 (HEPG2TOX_HILL_SLOPE 2.02, HEPG2TOX_R_SQUARED 0.972, PBLUC_HILL_SLOPE 3.75, PBLUC_R_SQUARED 0.69, read-out: LUCIFERASE INFECTION ASSAY - IC50): 2 µM |

From ChEMBL document CHEMBL4483862, “Open-source discovery of chemical leads for next-generation chemoprotective antimalarials” (2018)
